# Columns and labels:
# [1] = Plasma total coenzyme Q after 14-day oral administration (Example 3); assay type: in vivo, Crj:CD (SD) rats; conditions: male and female rats, 600 mg/kg oral in corn oil once a day for 14 days, 24 hr after final administration; compared to the reduced coenzyme Q10 administration group
# Experimental: A first group was used as a control group, and corn oil (3 ml/kg) was orally administered once a day for 14 days. […] At 24 hr after the final administration, blood samples were collected to give plasma samples. Using HPLC, the concentration of coenzyme Q in the obtained plasma was measured. The results are shown in the bar graph of FIG. 1.
# [2] = Oral absorbability test (Example 4); assay type: in vivo, Crj:CD (SD) rats; conditions: male rats, 25 mg/ml soy bean oil solution at 4.0 ml/kg, 2 hr from administration
# Experimental: Crj:CD (SD) rats (about 77-week-old, 10 male rats) were prepared. Reduced coenzyme Q10 was orally administered to 5 of them, and a mixture of reduced coenzyme Q10 and reduced coenzyme Q11 (containing 0.1% of reduced coenzyme Q11) was orally administered to the remaining 5 of them, each as a 25 mg/ml soy bean oil solution at a dose of 4.0 ml/kg. At 2 hr from the administration, blood was drawn and centrifuged to give plasma samples. Using HPLC, the concentration of coenzyme Q10 in the obtained plasma was measured. The results are shown in the bar graph of FIG. 2. As is clear from FIG. 2, the concentration of coenzyme Q10 in the plasma was about 3.4 μg/ml resulting from the administration of both reduced coenzyme Q10 and a mixture of reduced coenzyme Q10 and reduced coenzyme Q11.
smiles,measurement,setting,value
COc1c(O)c(C)c(C/C=C(\C)CC/C=C(\C)CC/C=C(\C)CC/C=C(\C)CC/C=C(\C)CC/C=C(\C)CC/C=C(\C)CC/C=C(\C)CCC=C(C)C)c(O)c1OC [reduced coenzyme Q9],concentration of total coenzyme Q in the plasma,[1],increased
COc1c(O)c(C)c(C/C=C(\C)CC/C=C(\C)CC/C=C(\C)CC/C=C(\C)CC/C=C(\C)CC/C=C(\C)CC/C=C(\C)CC/C=C(\C)CC/C=C(\C)CCC=C(C)C)c(O)c1OC [reduced coenzyme Q10],concentration of coenzyme Q10 in the plasma,[2],about 3.4 μg/ml
